Here are results for five compounds from US20120108431A1, “PLANT GROWTH REGULATOR ADDITIVE” (TAMINCO, NAAMLOZE VENNOOTSCHAP, priority 2009, published 2012).

What all share (format): in vivo
One assay concerns Winter wheat cv Limerick. Nature of the assay: Winter wheat Trial 3, pot trial, sprayed at GS23. The note with it: for Total No of Shoots/Plant at GS33 / Total No of “Large” Shoots/Plant at GS33 / Rooting (0-9) + 28 Days / Final Seed Yield + % / Rooting + % / Total No of Shoots/Plant + % / Total No of “Large” Shoots/Plant + %: winter wheat pots; for Rooting (0-9) + 28 Days: score 0-9, 28 days after spraying; for Final Seed Yield + % / Rooting + % / Total No of Shoots/Plant + % / Total No of “Large” Shoots/Plant + %: increase over the line given as 0 (untreated or growth regulator alone); for Final Seed Yield at Harvest (g per pot): winter wheat, eight plants per pot. On the procedure: The applied concentration of chemical can vary widely depending on the water volume applied to plants as well as other factors such as plant age and size, and plant sensitivity to the product. […] The rate of other components such as spreaders and stickers can be 50-200 ml per ha. C. […] Sprayed: 10 June, at GS23 (early-mid tillering). Plants were scored/assessed at GS33 on 12 July, with other measurements at crop maturity.

For another assay, the system named is Navy bean cv Primel. Nature of the assay: Navy bean Trial 2, pot trial, foliar spray at V2-V3. The conditions noted are these: for Final Seed Yield at Harvest (g per pot): one plant per pot; for Rooting (0-9) + 28 Days: score 0-9, 28 days after spraying.
The test system of another assay is Soybean. Nature of the assay: Soybean Trial 1, pot trial, foliar spray at V2-V3. The conditions noted are these: for Final Seed Yield at Harvest (g per pot): one plant per pot; for Rooting (0-9) + 28 Days: score 0-9, 28 days after spraying.
Setting [1] is: navy bean, increase over the line given as 0 (untreated or growth regulator alone).
The mark [2] stands for this setting: soybean, increase over the line given as 0 (untreated or growth regulator alone).

As for `CC(=O)Nc1ccc(O)cc1` [AC, N-(4-hydroxypheyl)acetamide], in the assay on Winter wheat cv Limerick, the “Total No of Shoots/Plant at GS33” value worked out at 3.0, the “Total No of “Large” Shoots/Plant at GS33” value was determined as 2.0, the “Rooting (0-9) + 28 Days” value is recorded as 5.4 and the “Final Seed Yield + %” value turned out to be 0%. Further, in the assay on Winter wheat cv Limerick, the “Rooting + %” value is reported as 0%, the “Total No of Shoots/Plant + %” value was 0%, the “Total No of “Large” Shoots/Plant + %” value was determined as 0% and the “Final Seed Yield at Harvest (g per pot)” value was 33.9 g per pot. In addition, in the assay with Navy bean cv Primel (navy bean), the “No of Large Pod Bearing Branches/Plant at Harvest” value turned out to be 1.0, the “Final Seed Yield at Harvest (g per pot)” value is 52.4 g per pot, the “Plant Biomass Score (0-9) at Harvest” value is listed as 5.2 and the “Rooting (0-9) + 28 Days” value came out at 7.0. Moreover, in the assay on Navy bean cv Primel (setting [1]), the “Final Seed Yield + %” value is recorded as 8%, the “No of Large Pod Bearing Branches/Plant + %” value was 0%, the “Plant Biomass Score + %” value was 0% and the “Rooting + %” value is recorded as 0%. In the assay on Soybean (soybean), the “No of Large Pod Bearing Branches/Plant at Harvest” value is 1.0, the “Final Seed Yield at Harvest (g per pot)” value was 34.0 g per pot, the “Plant Biomass Score (0-9) at Harvest” value worked out at 5.2 and the “Rooting (0-9) + 28 Days” value is given as 4.2. In the assay on Soybean (setting [2]), the “Final Seed Yield + %” value amounted to 2%, the “No of Large Pod Bearing Branches/Plant + %” value was determined as 0%, the “Plant Biomass Score + %” value is on record as 0% and the “Rooting + %” value is given as 0%.

As to `Nc1ccccc1C(=O)O` [AN, anthranilic acid], in the assay on Winter wheat cv Limerick, the “Total No of Shoots/Plant at GS33” value was 3.0, the “Total No of “Large” Shoots/Plant at GS33” value is 2.0, the “Rooting (0-9) + 28 Days” value stood at 5.4 and the “Final Seed Yield + %” value was 0%. In addition, in the assay with Winter wheat cv Limerick, the “Rooting + %” value is 0%, the “Total No of Shoots/Plant + %” value came out at 0%, the “Total No of “Large” Shoots/Plant + %” value turned out to be 0% and the “Final Seed Yield at Harvest (g per pot)” value came to 33.6 g per pot. Also, in the assay with Navy bean cv Primel (in vivo), the “Final Seed Yield + %” value is listed as 7% and the “Rooting + %” value is reported as 3%. Further, in the assay with Navy bean cv Primel (navy bean), the “No of Large Pod Bearing Branches/Plant at Harvest” value was 1.0, the “Final Seed Yield at Harvest (g per pot)” value turned out to be 52.0 g per pot, the “Plant Biomass Score (0-9) at Harvest” value was 5.2 and the “Rooting (0-9) + 28 Days” value stood at 7.2. Further, in the assay on Navy bean cv Primel (setting [1]), the “No of Large Pod Bearing Branches/Plant + %” value came out at 0% and the “Plant Biomass Score + %” value is 0%. In the assay on Soybean (in vivo), the “Final Seed Yield + %” value is reported as 5% and the “Rooting + %” value came out at 2%. Further, in the assay with Soybean (soybean), the “No of Large Pod Bearing Branches/Plant at Harvest” value turned out to be 1.0, the “Final Seed Yield at Harvest (g per pot)” value came out at 34.8 g per pot, the “Plant Biomass Score (0-9) at Harvest” value turned out to be 5.2 and the “Rooting (0-9) + 28 Days” value is 4.3. Moreover, in the assay with Soybean (setting [2]), the “No of Large Pod Bearing Branches/Plant + %” value amounted to 0% and the “Plant Biomass Score + %” value worked out at 0%.

In the case of `CC1(C)CCC(Cc2ccc(Cl)cc2)C1(O)Cn1cncn1` (stereo not drawn) [MET2, Metconazole], in the assay with Winter wheat cv Limerick, the “Total No of Shoots/Plant at GS33” value came to 3.8, the “Total No of “Large” Shoots/Plant at GS33” value is 2.6, the “Rooting (0-9) + 28 Days” value amounted to 6.0 and the “Final Seed Yield + %” value is listed as 0%. Moreover, in the assay with Winter wheat cv Limerick, the “Rooting + %” value is 0%, the “Total No of Shoots/Plant + %” value turned out to be 0%, the “Total No of “Large” Shoots/Plant + %” value was 0% and the “Final Seed Yield at Harvest (g per pot)” value amounted to 36.0 g per pot. In addition, in the assay with Navy bean cv Primel (navy bean), the “No of Large Pod Bearing Branches/Plant at Harvest” value was 1.2, the “Final Seed Yield at Harvest (g per pot)” value is given as 57.4 g per pot, the “Plant Biomass Score (0-9) at Harvest” value was determined as 5.1 and the “Rooting (0-9) + 28 Days” value was determined as 7.0. Further, in the assay with Navy bean cv Primel (setting [1]), the “Final Seed Yield + %” value is 0%, the “No of Large Pod Bearing Branches/Plant + %” value was 0%, the “Plant Biomass Score + %” value is 0% and the “Rooting + %” value worked out at 0%. Further, in the assay on Soybean (soybean), the “No of Large Pod Bearing Branches/Plant at Harvest” value amounted to 1.0, the “Final Seed Yield at Harvest (g per pot)” value is 36.6 g per pot, the “Plant Biomass Score (0-9) at Harvest” value is 6.0 and the “Rooting (0-9) + 28 Days” value is on record as 5.2. In addition, in the assay on Soybean (setting [2]), the “Final Seed Yield + %” value stood at 0%, the “No of Large Pod Bearing Branches/Plant + %” value worked out at 0%, the “Plant Biomass Score + %” value is listed as 0% and the “Rooting + %” value stood at 0%.

For the compound `CC1(C)CCC(Cc2ccc(Cl)cc2)C1(O)Cn1cncn1` (stereo not drawn) [MET, Metconazole], in the assay on Winter wheat cv Limerick, the “Total No of Shoots/Plant at GS33” value is reported as 3.8, the “Total No of “Large” Shoots/Plant at GS33” value is 2.6, the “Rooting (0-9) + 28 Days” value was 6.0 and the “Final Seed Yield + %” value is reported as 0%. In addition, in the assay with Winter wheat cv Limerick, the “Rooting + %” value amounted to 0%, the “Total No of Shoots/Plant + %” value came to 0%, the “Total No of “Large” Shoots/Plant + %” value was found to be 0% and the “Final Seed Yield at Harvest (g per pot)” value came to 36.2 g per pot. Further, in the assay with Navy bean cv Primel (navy bean), the “No of Large Pod Bearing Branches/Plant at Harvest” value is on record as 1.2, the “Final Seed Yield at Harvest (g per pot)” value was 57.2 g per pot, the “Plant Biomass Score (0-9) at Harvest” value is 5.2 and the “Rooting (0-9) + 28 Days” value is 7.0. For the same compound, in the assay on Navy bean cv Primel (setting [1]), the “Final Seed Yield + %” value worked out at 0%, the “No of Large Pod Bearing Branches/Plant + %” value stood at 0%, the “Plant Biomass Score + %” value is reported as 0% and the “Rooting + %” value is listed as 0%. In the assay with Soybean (soybean), the “No of Large Pod Bearing Branches/Plant at Harvest” value was found to be 1.1, the “Final Seed Yield at Harvest (g per pot)” value came out at 36.6 g per pot, the “Plant Biomass Score (0-9) at Harvest” value came to 6.0 and the “Rooting (0-9) + 28 Days” value is on record as 5.2. In the assay on Soybean (setting [2]), the “Final Seed Yield + %” value amounted to 0%, the “No of Large Pod Bearing Branches/Plant + %” value is recorded as 0%, the “Plant Biomass Score + %” value was 0% and the “Rooting + %” value is recorded as 0%.

Regarding `CCOC(=O)C1CC(=O)C(=C(O)C2CC2)C(=O)C1` (stereo not drawn) [MOD, Trinexapac-ethyl], in the assay on Winter wheat cv Limerick, the “Total No of Shoots/Plant at GS33” value is 3.8, the “Total No of “Large” Shoots/Plant at GS33” value worked out at 2.6, the “Rooting (0-9) + 28 Days” value is 6.4 and the “Final Seed Yield + %” value is reported as 0%. Also, in the assay on Winter wheat cv Limerick, the “Rooting + %” value worked out at 0%, the “Total No of Shoots/Plant + %” value came out at 0%, the “Total No of “Large” Shoots/Plant + %” value is reported as 0% and the “Final Seed Yield at Harvest (g per pot)” value amounted to 35.4 g per pot. In the assay on Navy bean cv Primel (navy bean), the “No of Large Pod Bearing Branches/Plant at Harvest” value was determined as 1.2, the “Final Seed Yield at Harvest (g per pot)” value was 56.1 g per pot, the “Plant Biomass Score (0-9) at Harvest” value came to 5.6 and the “Rooting (0-9) + 28 Days” value worked out at 7.2. In the assay with Navy bean cv Primel (setting [1]), the “Final Seed Yield + %” value is on record as 0%, the “No of Large Pod Bearing Branches/Plant + %” value is 0%, the “Plant Biomass Score + %” value was 0% and the “Rooting + %” value is listed as 0%. In addition, in the assay with Soybean (soybean), the “No of Large Pod Bearing Branches/Plant at Harvest” value is given as 1.0, the “Final Seed Yield at Harvest (g per pot)” value came out at 36.2 g per pot, the “Plant Biomass Score (0-9) at Harvest” value amounted to 6.2 and the “Rooting (0-9) + 28 Days” value was found to be 4.4. Also, in the assay on Soybean (setting [2]), the “Final Seed Yield + %” value turned out to be 0%, the “No of Large Pod Bearing Branches/Plant + %” value worked out at 0%, the “Plant Biomass Score + %” value is given as 0% and the “Rooting + %” value turned out to be 0%.
